{
  "source": "paper PMC3610419",
  "about": "“A Randomized, Double-Blind Placebo Controlled Trial of Balapiravir, a Polymerase Inhibitor, in Adult Dengue Patients” (The Journal of Infectious Diseases, 2012)",
  "key": {"NS1": {"test_system": "NS1", "test": "NS1 antigenemia (Platelia NS1 assay) in adult dengue patients, randomized placebo-controlled trial", "type": "in vivo, human", "settings": "Kaplan-Meier estimate", "procedure": "Randomization to treatment group was by computer-generated randomization sequencing in blocks of 2. Balapiravir was formulated in a 500-mg film-coated tablet. The placebo consisted of an identical looking tablet containing excipient only. All balapiravir and placebo tablets were provided by F. Hoffmann-La Roche. Patients in cohort 1 (n = 20) received 1500 mg of balapiravir or an identical placebo orally every 12 hours for 5 days (10 doses). The decision to dose escalate (to 3000 mg) was made after review of the partially unblinded group mean clinical and laboratory data acquired from patients in cohort 1. Patients in cohort 2 (n = 44) received 3000 mg of balapiravir or placebo orally twice a day for 5 days (10 doses)."}, "[1]": {"settings": "4500 mg twice daily of balapiravir, HCV-infected persons, cited from earlier work"}, "[2]": {"test": "Host immune response (plasma cytokines, whole blood transcripts) and virus sequence diversity in adult dengue patients", "type": "in vivo, human", "procedure": "Plasma samples were collected for virological and immunological investigations every 12 hours, beginning immediately before commencement of treatment, during the next 6 study days and on one occasion on study day 7 and day 14 (virological markers) or day 7 and day 28 (immunological markers). Viremia was measured using a validated, internally controlled reverse-transcription polymerase chain reaction assay in a Good Clinical Laboratory Practice environment. The limit of detection was 357 copies/mL for DENV-1, 72 copies/mL for DENV-2, 357 copies/mL for DENV-3, and 720 copies/mL for DENV-4. The presence of NS1 in plasma was determined using the Platelia NS1 assay (Bio-Rad) and was performed according to the manufacturer's instructions. Plasma cytokine levels (interleukin 1β [IL-1β], IL-2, IL-4, IL-5, IL-6, IL-10, IL-12p70, IL-13, interferon γ [IFN-γ], and tumor necrosis factor α [TNF-α]) were measured using a Bio-Plex human cytokine assay (Bio-Rad) and a multiplex array reader (Luminex Systems, Bio-Plex workstation from Bio-Rad Laboratories) according to the manufacturer's instructions. Briefly, 50-μL plasma samples were incubated with monoclonal antibody coupled beads. […] Cytokine concentrations in samples were calculated by use of recombinant cytokines as standards and software provided by the manufacturer (Bio-Plex Manager). […]"}, "DENV-1": {"test_system": "DENV-1", "test": "Inhibition of DENV replication in Huh-7 cells, viral RNA by quantitative real time PCR", "type": "cell-based, dengue virus", "settings": "Dengue virus, DENV1, Huh-7, 48 h, mean ± SD of 3 experiments", "procedure": "(§1) ^a Each experiment was done in duplicate. The mean and standard deviation shown represent 3 independent (different date) experiments for each virus tested. Huh-7 cells were plated in 96-well plate at 10,000 cells/well in DMEM containing 10 % FBS in 100 μl volume one day prior to set up of the assay. The following day the medium was aspirated off and diluted virus at a multiplicity of infection of 0.5 or media was added to the assay and control wells, respectively. The virus was allowed to attach to the cells for two hours at 37°C in a humidified 5% C02 atmosphere while the dilutions of the test molecule were prepared. Test molecules (or medium as a control) were added after aspiration of the virus-containing media 2 hours post-infection in 3-fold dilutions at a final DMSO concentration of 1%. After 48 hrs, cells were washed and cellular RNA were isolated. In this study, we used a quantitative real time PCR method to quantitate dengue viral RNA in Huh-7 in the presence of inhibitors. Viral RNA and endogenous 18S rRNA control (Applied Bio System) was quantified by a real time PCR assay using the following primers. Dengue Reverse (Common to all the serotypes): 5’-[…]-3’, Dengue forward serotype 1: 5’-[…]-3’, Dengue forward serotype 2 or 3: 5’-[…]-3’, Dengue forward serotype 4: 5’-[…] -3’ and Dengue probe (Common to all the serotypes): 5'-/56-FAM/[…]/3BHQ_1/-3'. Taqman was performed in duplicate. IC50 was obtained using the following calculations. First ΔCt was calculated by subtracting 18S rRNA CT value from dengue RNA CT value. ΔCts from duplicate taqman assay were averaged. Then ΔΔCt was obtained by subtracting the average ΔCt of non-treated sample from the treated sample average ΔCt. Relative quantification was calculated using the following formula. Relative quantification = 2^-averageΔΔCT. The 50% inhibitory concentrations (EC50) were calculated using the sigmoidal dose-response model in Microsoft XLfit."}, "DENV-2": {"test_system": "DENV-2", "test": "Inhibition of DENV replication in Huh-7 cells, viral RNA by quantitative real time PCR", "type": "cell-based, dengue virus", "settings": "Dengue virus, DENV2, Huh-7, 48 h, mean ± SD of 3 experiments", "procedure": "as §1"}, "DENV-3": {"test_system": "DENV-3", "test": "Inhibition of DENV replication in Huh-7 cells, viral RNA by quantitative real time PCR", "type": "cell-based, dengue virus", "settings": "Dengue virus, DENV3, Huh-7, 48 h, mean ± SD of 3 experiments", "procedure": "as §1"}, "DENV-4": {"test_system": "DENV-4", "test": "Inhibition of DENV replication in Huh-7 cells, viral RNA by quantitative real time PCR", "type": "cell-based, dengue virus", "settings": "Dengue virus, DENV4, Huh-7, 48 h, mean ± SD of 3 experiments", "procedure": "as §1"}},
  "data": [
    {"compound": "CC(C)C(=O)OC[C@@]1(N=[N+]=[N-])O[C@@H](n2ccc(N)nc2=O)[C@H](OC(=O)C(C)C)[C@@H]1OC(=O)C(C)C", "note": "[Balapiravir]", "values": [
      {"measurement": "Median time to first negative NS1 test result (IQR)", "setting": "NS1; High-dose (3000 mg twice a day, 5 days), n = 22", "result": "4 (3–6) d"},
      {"measurement": "Median time to first negative NS1 test result (IQR)", "setting": "NS1; Low-dose (1500 mg twice a day, 5 days), n = 10", "result": "3 (3–14) d"},
      {"measurement": "mean Cmin", "setting": "[1]", "result": 21, "unit": "µM"},
      {"measurement": "Cmax", "setting": "[1]; read-out: mean Cmax", "result": 88, "unit": "µM"},
      {"measurement": "kinetics of plasma cytokine concentrations and whole blood transcriptional profile", "setting": "[2]; balapiravir treatment versus placebo", "result": "not attenuated"},
      {"measurement": "treatment-related effects on whole blood gene transcript abundance", "setting": "[2]; baseline, study days 4 and 28, data not shown", "result": "no evidence of treatment-related effects"},
      {"measurement": "IC50", "setting": "DENV-1; DENV-1 strain FR28 (clinical isolate)", "result": "6.8 ± 1.1", "unit": "µM"},
      {"measurement": "IC50", "setting": "DENV-1; DENV-1 strain FR34 (clinical isolate)", "result": "7 ± 2", "unit": "µM"},
      {"measurement": "IC50", "setting": "DENV-1; DENV-1 strain FR37 (clinical isolate)", "result": "7.2 ± 2", "unit": "µM"},
      {"measurement": "IC50", "setting": "DENV-1; DENV-1 strain FR42 (clinical isolate)", "result": "7.4 ± 2.3", "unit": "µM"},
      {"measurement": "IC50", "setting": "DENV-1; DENV-1 strain Thsman", "result": "8.8 ± 1.2", "unit": "µM"},
      {"measurement": "IC50", "setting": "DENV-2; DENV-2 strain 32/0102 (clinical isolate), Huh-7 cells", "result": "3 ± 0.5", "unit": "µM"},
      {"measurement": "IC50", "setting": "DENV-2; DENV-2 strain 32/0140 (clinical isolate), Huh-7 cells", "result": "1.9 ± 0.7", "unit": "µM"},
      {"measurement": "IC50", "setting": "DENV-2; DENV-2 strain 33/0051 (clinical isolate), Huh-7 cells", "result": "2 ± 0.2", "unit": "µM"},
      {"measurement": "IC50", "setting": "DENV-2; DENV-2 strain 33/0178 (clinical isolate), Huh-7 cells", "result": "2 ± 0.6", "unit": "µM"},
      {"measurement": "IC50", "setting": "DENV-2; DENV-2 strain Th36, Huh-7 cells", "result": "4.6 ± 0.4", "unit": "µM"},
      {"measurement": "IC50", "setting": "DENV-3; DENV-3 strain 33/0072 (clinical isolate), Huh-7 cells", "result": "3 ± 0.4", "unit": "µM"},
      {"measurement": "IC50", "setting": "DENV-3; DENV-3 strain 33/0096 (clinical isolate), Huh-7 cells", "result": "3.4 ± 1.7", "unit": "µM"},
      {"measurement": "IC50", "setting": "DENV-3; DENV-3 strain 33/0177 (clinical isolate), Huh-7 cells", "result": "3.2 ± 0.9", "unit": "µM"},
      {"measurement": "IC50", "setting": "DENV-3; DENV-3 strain 33/0253 (clinical isolate), Huh-7 cells", "result": "4.4 ± 0.9", "unit": "µM"},
      {"measurement": "IC50", "setting": "DENV-3; DENV-3 strain H87, Huh-7 cells", "result": "3.7 ± 0.9", "unit": "µM"},
      {"measurement": "IC50", "setting": "DENV-4; DENV-4 strain H241, Huh-7 cells", "result": "11 ± 1", "unit": "µM"},
      {"measurement": "IC50", "setting": "DENV-4; DENV-4 strain Phili/1567, Huh-7 cells", "result": "2 ± 0.4", "unit": "µM"},
      {"measurement": "IC50", "setting": "DENV-4; DENV-4 strain Senga/DA, Huh-7 cells", "result": "6.5 ± 0.9", "unit": "µM"},
      {"measurement": "IC50", "setting": "DENV-4; DENV-4 strain Venz/JQ, Huh-7 cells", "result": "5.5 ± 1.3", "unit": "µM"}
    ]}
  ]
}
